# Experimental data: article PMC7912516, “New Antimicrobials Based on the Adarotene Scaffold with Activity against Multi-Drug Resistant Staphylococcus aureus and Vancomycin-Resistant Enterococcus” (Antibiotics, 2021)
# “And” between values parts separate entries of the source, which are not always exact repeats. Identical values can stand only once. Like-named read-outs stand apart in the source and are kept apart here.
# Legend:
# [1] = system: S. aureus ATCC 25923 (reference strain); assay: MIC/MBC by broth micro-dilution (CLSI); assay type: cell-based; conditions: Staphylococcus aureus; for MBC: ATCC25923, in square brackets, modal value; for MIC: ATCC25923, modal value
# Experimental: (§1) To expand the previously obtained results compounds 16 and 17 were also tested on wider a selection of strains: two other MDR S. aureus and E. faecalis clinical isolates, the S. aureus ATCC 25923 and the E. faecalis ATCC 51299 reference strains. Compound 2, which was endowed with low antimicrobial activity, was tested as well, to confirm its low efficacy. Adarotene was used as control compound (Table 2).
# (§2) MICs and MBCs were determined according to CLSI (Clinical and Laboratory Standards Institute) guidelines, in triplicate. Results are shown as modal values of the three replicates. According to MIC and MBC data, the killing rate was calculated as the ratio between MBC and MIC on which basis it is possible to define the compounds tested as bactericides (killing rate = 1–4), or bacteriostatic (killing rate > 4).
# (§3) Preparation of the solution containing molecules: for each molecule to be tested, solutions were made as DMSO stock, with a concentration of 2.560 mg/mL. Scalar dilutions were than prepared directly on plates by using Mueller Hinton Broth (MHB) as a growth medium (range 0.5–256 µg/mL).
# (§4) Bacterial suspension preparation: cryostrains preserved at −80 °C were recovered by incubation in growth medium (Brain Heart Infusion Broth, BHI) for 24–48 h at 35 ± 2 °C followed by passages in agar growth medium (Columbia Blood Agar). Colonies with less than 30 h were suspended in MHB with the purpose to prepare a bacterial suspension with a turbidity of 0.5 MF, containing approximately 1.5 × 10^8 cfu/mL. This suspension was than diluted in MHB until reaching a final concentration of 5 × 10^4 CFU/well. Simultaneously, check in broth-microdilution only with solvent (in order to exclude that the effect of growth inhibition might be due to the drug solution solvent), positive growth control in absence of DMSO and drug, and negative purity control only with injection broth were performed.
# S. aureus ATCC 25923 (reference strain): mecA negative; multi-susceptible.
# [2] = system: S. aureus strain 2 (MDR clinical isolate); assay: MIC/MBC by broth micro-dilution (CLSI); assay type: cell-based; conditions: Staphylococcus aureus, modal value; for MBC: in square brackets
# Experimental: as §1, §2, §3, §4
# S. aureus strain 2 (collection, MDR): mecA negative; β-lactamase positive, resistant to erythromycin, gentamicin, clindamycin and fusidic acid.
# [3] = system: E. faecalis strain 1 (MDR clinical isolate); assay: MIC/MBC by broth micro-dilution (CLSI); assay type: cell-based, Enterococcus faecalis; conditions: for MBC: in square brackets
# Experimental: (§5) The compounds were initially tested with a methicillin-resistant S. aureus and an E. faecalis clinical isolates (details in the experimental section), two MDR strains according to definition by Magiorakos et al.. The activity of studied compounds was assessed by broth micro-dilution method. Minimal Inhibitory Concentration (MIC), and Minimal Bactericidal Concentration (MBC) were determined and possible bacteriostatic or bactericidal activity was also investigated.
# as §2, §3, §4
# E. faecalis strain 1 (collection, MDR) vanA/B negative; aminoglycosides high-level resistant to aminoglycosides (gentamicin and streptomycin) and ampicillin.
# [4] = system: E. faecalis ATCC 51299 (reference strain, vanB positive); assay: MIC/MBC by broth micro-dilution (CLSI); assay type: cell-based; conditions: Enterococcus faecalis; for MBC: ATCC51299, in square brackets, modal value; for MIC: ATCC51299, modal value
# Experimental: as §1, §2, §3, §4
# E. faecalis ATCC 51299 (reference strain): vanB positive.
# [5] = system: E. faecalis strain 2 (MDR clinical isolate); assay: MIC/MBC by broth micro-dilution (CLSI); assay type: cell-based; conditions: Enterococcus faecalis, modal value; for MBC: in square brackets
# Experimental: as §1, §2, §3, §4
# E. faecalis strain 2 (collection, MDR) vanA/B negative; aminoglycosides high-level resistant to aminoglycosides (gentamicin and strseptomycin) and ampicillin.
# [6] = system: S. aureus strain 1 (MDR clinical isolate, MRSA, mecA positive); assay: MIC/MBC by broth micro-dilution (CLSI); assay type: cell-based, Staphylococcus aureus; conditions: for MIC / MBC: S. aureus Strain 1; for MBC: in square brackets; for bactericidal or bacteriostatic activity (killing rate = MBC/MIC): S. aureus and E. faecalis, bactericides killing rate = 1–4, bacteriostatic > 4
# Experimental: as §5, §2, §3, §4
# S. aureus strain 1 (collection, MDR): mecA positive; MRSA, β-lactamase positive, resistant to ciprofloxacin, gentamicin and erythromycin.
# tumor cell line IGROV-1 = conditions: ± SD, read-out: IC50 (concentration required for 50% inhibition of cell growth), cited from earlier work
# [7] = system: tumor cell line H-460 NCI; design: method as in PMID 32920362; conditions: ± SD, ref [17], read-out: IC50 (concentration required for 50% inhibition of cell growth); cited from earlier work
# [8] = Enterococcus faecalis, modal value
# [9] = Enterococcus faecalis, modal value of three replicates, read-out: MIC
# [10] = Enterococcus faecalis, modal value, read-out: MIC
# [11] = Staphylococcus aureus, MRSA, modal value of three replicates, read-out: MIC
# [12] = Staphylococcus aureus, MRSA, modal value, read-out: MIC
# [13] = Staphylococcus aureus, MRSA, modal value
# [14] = modal value of three replicates
SMILES,"MBC [3, 8]","MIC [3, 9] [µg/mL]","MIC [3, 10] [µM]","MIC [6, 11] [µg/mL]","MIC [6, 12] [µM]","MBC [6, 13]",IC50 (tumor cell line IGROV-1; ref [13]) [µM],"MIC [3, 14]","MIC [6, 14]",other results
"O=C(O)/C=C/c1ccc(-c2ccc(O)c(C34CC5CC(CC(C5)C3)C4)c2)cc1 [Adarotene, adarotene]",32 µg/mL and 85 µM,1,3,8,21,16 µg/mL and 42 µM,0.23 ± 0.08,,,MBC [1]: 16 µg/mL and 42 µM; MIC [1]: 8 µg/mL and 21 µM; MBC [2]: 8 µg/mL and 21 µM; MIC [2]: 4 µg/mL and 10 µM; MBC [4]: 32 µg/mL and 84 µM; MIC [4]: 2 µg/mL and 5 µM; MBC [5]: 32 µg/mL and 84 µM; MIC [5]: 4 µg/mL and 10 µM
CC(C)(C)c1cc(-c2ccc(/C=C/C(=O)O)cc2)ccc1O [Compound 1],,> 256,> 864,64,216,,30,,,
"O=C(O)C=Cc1ccc(-c2ccc(OCCCCO)c(C34CC5CC(CC(C5)C3)C4)c2)cc1 [Compound 2, 3-[3′-adamantan-1-yl-4′-(hydroxybutoxy)-biphenyl-4-yl]-acrylic acid]",,> 256,287,> 256,573,,,128 µg/mL,256 µg/mL,MIC [1]: 256 µg/mL and 572 µM; MIC [2]: 256 µg/mL and 572 µM; MIC [4]: 64 µg/mL and 143 µM; MIC [5]: 128 µg/mL and 286 µM
N#C/C=C/c1ccc(-c2ccc(O)c(C34CC5CC(CC(C5)C3)C4)c2)cc1 [Compound 4],128 µg/mL and 360 µM,≥ 32,90,,361,128 µg/mL and 361 µM,8.3 ± 1.4,32 µg/mL,>= 32 µg/mL and 128 [128] µg/mL,
O=C(/C=C/c1ccc(-c2ccc(O)c(C34CC5CC(CC(C5)C3)C4)c2)cc1)NO [Compound 5],,,> 657,≥ 32,164,,,>= 32 µg/mL and >256 µg/mL,64 µg/mL,IC50 (tumor cell line IGROV-1; ref [15]): 1.1 ± 0.6 µM
O=C(/C=C/c1ccc(-c2ccc(O)c(C34CC5CC(CC(C5)C3)C4)c2)cc1)Nc1ccc(O)cc1 [Compound 6],,,> 550,,> 549,,6.6 ± 0.5,>= 32 µg/mL and >256 µg/mL,>= 32 µg/mL and >256 µg/mL,
O=C(O)/C(F)=C\c1ccc(-c2ccc(O)c(C34CC5CC(CC(C5)C3)C4)c2)cc1 [Compound 7],16 µg/mL and 40 µM,,10,2 to 4,10,16 µg/mL and 40 µM,> 3,1 to 4 µg/mL and 4 µg/mL,4 µg/mL,
C/C(=C\c1ccc(-c2ccc(O)c(C34CC5CC(CC(C5)C3)C4)c2)cc1)C(=O)O [Compound 8],8 µg/mL and 21 µM,1 to 4,3,2 to 4,5,8 µg/mL and 20 µM,7.19 ± 1.27,1 µg/mL,2 µg/mL,
O=C(O)CCc1ccc(-c2ccc(O)c(C34CC5CC(CC(C5)C3)C4)c2)cc1 [Compound 10],32 µg/mL and 85 µM,16,42,16,42,16 µg/mL and 42 µM,48.4 ± 0.88,16 µg/mL,16 [16] µg/mL,
COc1cc(-c2ccc(/C=C/C(=O)O)cc2)cc(C23CC4CC(CC(C4)C2)C3)c1O [Compound 11],,8,20,16,40,32 µg/mL and 80 µM,,,,
O=C(O)/C=C/c1ccc(-c2cc3c(c(C45CC6CC(CC(C6)C4)C5)c2)OCCO3)cc1 [Compound 12],,2,5,4,9,,,,,IC50 (tumor cell line IGROV-1; ref [14]): 0.23 ± 0.07 µM
CC(=O)NCc1cc(-c2ccc(/C=C/C(=O)O)cc2)cc(C23CC4CC(CC(C4)C2)C3)c1O [Compound 13],16 µg/mL and 36 µM,4,9,8,18,16 µg/mL and 36 µM,,,,IC50 (tumor cell line IGROV-1; ref [14]): 1.24 ± 0.07 µM
O=Cc1cc(-c2ccc(/C=C/C(=O)O)cc2)cc(C23CC4CC(CC(C4)C2)C3)c1O [Compound 15],,64,159,64,159,,,,,IC50 (tumor cell line IGROV-1; ref [14]): 1.64 ± 0.03 µM
CC(C)(C)ON=Cc1cc(/C=C/C(=O)O)ccc1-c1ccc(O)c(C23CC4CC(CC(C4)C2)C3)c1 [Compound 16],4 µg/mL and 8 µM,2 to 8,4,4,8,4 µg/mL and 8 µM,,2 µg/mL,4 [4] µg/mL,IC50 [7]: > 10 µM; MBC [1]: 4 µg/mL and 8 µM; MIC [1]: 2 µg/mL and 4 µM; MBC [2]: 2 µg/mL and 4 µM; MIC [2]: 2 µg/mL and 4 µM; MBC [4]: 8 µg/mL and 16 µM; MIC [4]: 2 µg/mL and 4 µM; MBC [5]: 8 µg/mL and 16 µM; MIC [5]: 2 µg/mL and 4 µM; bactericidal or bacteriostatic activity (killing rate = MBC/MIC) [6]: bactericidal effect
CON=Cc1cc(/C=C/C(=O)O)ccc1-c1ccc(O)c(C23CC4CC(CC(C4)C2)C3)c1 [Compound 17],16 µg/mL and 38 µM,,19,4,9,4 µg/mL and 9 µM,,2 to 8 µg/mL and 8 µg/mL,4 [4] µg/mL,IC50 [7]: > 10 µM; MBC [1]: 4 µg/mL and 10 µM; MIC [1]: 2 µg/mL and 5 µM; MBC [2]: 32 µg/mL and 74 µM; MIC [2]: 4 µg/mL and 10 µM; MBC [4]: 32 µg/mL and 74 µM; MIC [4]: 8 µg/mL and 18 µM; MBC [5]: 16 µg/mL and 36 µM; MIC [5]: 8 µg/mL and 18 µM; bactericidal or bacteriostatic activity (killing rate = MBC/MIC) [6]: bactericidal effect
O=C(O)/C=C/c1ccc(-c2ccc(O)c(C34CC5CC(CC(C5)C3)C4)c2)c(C=NOCC(=O)O)c1 [Compound 18],,,269,,269,,,32 to 128 µg/mL and 128 µg/mL,32 to 128 µg/mL and 128 µg/mL,IC50 [7]: > 10 µM
N=C(N)NCc1cc(/C=C/C(=O)O)ccc1-c1ccc(O)c(C23CC4CC(CC(C4)C2)C3)c1 [Compound 19],64 µg/mL and 144 µM,32 to 128,72,32 to 128,72,64 µg/mL and 144 µM,,32 µg/mL,32 µg/mL,IC50 [7]: > 10 µM
O=Cc1cc(/C=C/C(=O)O)ccc1-c1ccc(O)c(C23CC4CC(CC(C4)C2)C3)c1 [Compound 20],,8,20,2,5,32 µg/mL and 80 µM,,,,IC50 [7]: 3.2 ± 0.2 µM
